PubChem BioAssay AID2060891 (Molecular Pharmacology Branch, DTP, NCI, 2025)

Tested on: K98450-129-R-PDC complex spheroid growth, percent test/control
Test: Anticancer human tumor K98450-129-R-PDC patient-derived colon adenocarcinoma cell line growth inhibition [RAS]
Conditions: for IC50: curve of first compound; for viability, T/C: stronger effect = lower value; active = viability on the fitted dose curve at most 10% of control; inactive = the rest
Method in brief: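 Multi-cell-type spheroids: tumor cells plus HUVEC endothelial cells and mesenchymal stem cells. RAS-pathway inhibitors were combined with targeted agents, each dosed in half-log steps down from clinical Cmax, or from 10 microM when Cmax was unknown.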

[1] = second compound 0.000949 µM, first compound 0.000949 µM
[2] = second compound 0.000949 µM, first compound 0.003 µM
[3] = second compound 0.000949 µM, first compound 0.00949 µM
[4] = second compound 0.000949 µM, first compound 0.03 µM
[5] = second compound 0.000949 µM, first compound 0.0949 µM
[6] = second compound 0.000949 µM, first compound 0.3 µM
[7] = second compound 0.003 µM, first compound 0.000949 µM
[8] = second compound 0.003 µM, first compound 0.003 µM
[9] = second compound 0.003 µM, first compound 0.00949 µM
[10] = second compound 0.003 µM, first compound 0.03 µM
[11] = second compound 0.003 µM, first compound 0.0949 µM
[12] = second compound 0.003 µM, first compound 0.3 µM
[13] = second compound 0.00949 µM, first compound 0.000949 µM
[14] = second compound 0.00949 µM, first compound 0.003 µM
[15] = second compound 0.00949 µM, first compound 0.00949 µM
[16] = second compound 0.00949 µM, first compound 0.03 µM
[17] = second compound 0.00949 µM, first compound 0.0949 µM
[18] = second compound 0.00949 µM, first compound 0.3 µM
[19] = second compound 0.03 µM, first compound 0.000949 µM
[20] = second compound 0.03 µM, first compound 0.003 µM
[21] = second compound 0.03 µM, first compound 0.00949 µM
[22] = second compound 0.03 µM, first compound 0.03 µM
[23] = second compound 0.03 µM, first compound 0.0949 µM
[24] = second compound 0.03 µM, first compound 0.3 µM
[25] = second compound 0.0949 µM, first compound 0.000949 µM
[26] = second compound 0.0949 µM, first compound 0.003 µM
[27] = second compound 0.0949 µM, first compound 0.00949 µM
[28] = second compound 0.0949 µM, first compound 0.03 µM
[29] = second compound 0.0949 µM, first compound 0.0949 µM
[30] = second compound 0.0949 µM, first compound 0.3 µM
[31] = second compound 0.3 µM, first compound 0.000949 µM
[32] = second compound 0.3 µM, first compound 0.003 µM
[33] = second compound 0.3 µM, first compound 0.00949 µM
[34] = second compound 0.3 µM, first compound 0.03 µM
[35] = second compound 0.3 µM, first compound 0.0949 µM
[36] = second compound 0.3 µM, first compound 0.3 µM
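Also: spheroids exposed to agents for seven days before the viability readout.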
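For viability, T/C in this document: luminescence used as a proxy for viable cell amount.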

C=CC(=O)N1CCN(c2nc(OCC3CCCN3C)nc3c(F)c(-c4nc(N)cc(C)c4C(F)(F)F)c(Cl)cc23)C(C)C1 (stereo unspecified) + CCn1c(-c2cccnc2C(C)OC)c2c3cc(ccc31)N1CCOC(CC(NC(=O)C(C(C)C)N(C)C(=O)C3(F)CCN(C(=O)C#CC(C)(C)N(C)C)CC3)C(=O)N3CCCC(N3)C(=O)OCC(C)(C)C2)C1
< 3.16 nM: IC50 (second compound 0.03 µM) | IC50 (second compound 0.0949 µM) | IC50 (second compound 0.3 µM)
112 nM: IC50 (second compound 0.003 µM)
179 nM: IC50 (second compound 0.000949 µM)
3.58 nM: IC50 (second compound 0.00949 µM)
inactive: viability, T/C (second compound 0.000949 µM, first compound 0.00316 µM) 81.6% | viability, T/C (second compound 0.000949 µM, first compound 0.01 µM) 69.9% | viability, T/C (second compound 0.000949 µM, first compound 0.0316 µM) 63.1% | viability, T/C (second compound 0.000949 µM, first compound 0.1 µM) 55.4% | viability, T/C (second compound 0.000949 µM, first compound 0.316 µM) 46.6% | viability, T/C (second compound 0.000949 µM, first compound 1 µM) 36% | viability, T/C (second compound 0.003 µM, first compound 0.00316 µM) 69.4% | viability, T/C (second compound 0.003 µM, first compound 0.01 µM) 54% | viability, T/C (second compound 0.003 µM, first compound 0.0316 µM) 52.8% | viability, T/C (second compound 0.003 µM, first compound 0.1 µM) 56.2% | viability, T/C (second compound 0.003 µM, first compound 0.316 µM) 45.9% | viability, T/C (second compound 0.003 µM, first compound 1 µM) 35.2% | viability, T/C (second compound 0.00949 µM, first compound 0.00316 µM) 52.8% | viability, T/C (second compound 0.00949 µM, first compound 0.01 µM) 46.8% | viability, T/C (second compound 0.00949 µM, first compound 0.0316 µM) 43.8% | viability, T/C (second compound 0.00949 µM, first compound 0.1 µM) 44.9% | viability, T/C (second compound 0.00949 µM, first compound 0.316 µM) 39.9% | viability, T/C (second compound 0.00949 µM, first compound 1 µM) 41.9% | viability, T/C (second compound 0.03 µM, first compound 0.00316 µM) 39.4% | viability, T/C (second compound 0.03 µM, first compound 0.01 µM) 37.1% | viability, T/C (second compound 0.03 µM, first compound 0.0316 µM) 40.4% | viability, T/C (second compound 0.03 µM, first compound 0.1 µM) 40.7% | viability, T/C (second compound 0.03 µM, first compound 0.316 µM) 43.2% | viability, T/C (second compound 0.03 µM, first compound 1 µM) 39.9% | viability, T/C (second compound 0.0949 µM, first compound 0.00316 µM) 36.6% | viability, T/C (second compound 0.0949 µM, first compound 0.01 µM) 34.3% | viability, T/C (second compound 0.0949 µM, first compound 0.0316 µM) 42.1% | viability, T/C (second compound 0.0949 µM, first compound 0.1 µM) 37.2% | viability, T/C (second compound 0.0949 µM, first compound 0.316 µM) 43.5% | viability, T/C (second compound 0.0949 µM, first compound 1 µM) 33.7% | viability, T/C (second compound 0.3 µM, first compound 0.00316 µM) 29.8% | viability, T/C (second compound 0.3 µM, first compound 0.01 µM) 35.3% | viability, T/C (second compound 0.3 µM, first compound 0.0316 µM) 42.9% | viability, T/C (second compound 0.3 µM, first compound 0.1 µM) 29% | viability, T/C (second compound 0.3 µM, first compound 0.316 µM) 36.1% | viability, T/C (second compound 0.3 µM, first compound 1 µM) 38%

CC1(C)CCC(Nc2ncc(C(F)(F)F)c(-c3c[nH]c4c(P(C)(C)=O)c(C#N)ccc34)n2)CN1 (stereo unspecified) + CCn1c(-c2cccnc2C(C)OC)c2c3cc(ccc31)N1CCOC(CC(NC(=O)C(C(C)C)N(C)C(=O)C3(F)CCN(C(=O)C#CC(C)(C)N(C)C)CC3)C(=O)N3CCCC(N3)C(=O)OCC(C)(C)C2)C1
> 300 nM: IC50 (second compound 0.000949 µM) | IC50 (second compound 0.003 µM) | IC50 (second compound 0.00949 µM)
inactive: viability, T/C [1] 88.2% | viability, T/C [2] 72.2% | viability, T/C [3] 83.1% | viability, T/C [4] 79.9% | viability, T/C [5] 80.8% | viability, T/C [6] 53.8% | viability, T/C [7] 72.4% | viability, T/C [8] 52.9% | viability, T/C [9] 64.5% | viability, T/C [10] 67.7% | viability, T/C [11] 61.1% | viability, T/C [12] 50.4% | viability, T/C [13] 52.5% | viability, T/C [14] 45.5% | viability, T/C [15] 52.7% | viability, T/C [16] 53.4% | viability, T/C [17] 51.8% | viability, T/C [18] 49.6% | viability, T/C [19] 45% | viability, T/C [20] 42.9% | viability, T/C [21] 43.2% | viability, T/C [22] 45.1% | viability, T/C [23] 48.2% | viability, T/C [24] 43.5% | viability, T/C [25] 39.2% | viability, T/C [26] 41.1% | viability, T/C [27] 44.7% | viability, T/C [28] 41.8% | viability, T/C [29] 50.3% | viability, T/C [30] 43.1% | viability, T/C [31] 34.3% | viability, T/C [32] 40.7% | viability, T/C [33] 43.1% | viability, T/C [34] 36.2% | viability, T/C [35] 46.9% | viability, T/C [36] 42%
< 0.949 nM: IC50 (second compound 0.03 µM) | IC50 (second compound 0.0949 µM) | IC50 (second compound 0.3 µM)

CCc1c2c(nc3ccc(O)cc13)-c1cc3c(c(=O)n1C2)COC(=O)[C@]3(O)CC + CCn1c(-c2cccnc2C(C)OC)c2c3cc(ccc31)N1CCOC(CC(NC(=O)C(C(C)C)N(C)C(=O)C3(F)CCN(C(=O)C#CC(C)(C)N(C)C)CC3)C(=O)N3CCCC(N3)C(=O)OCC(C)(C)C2)C1
< 0.949 nM: IC50 (second compound 0.00949 µM) | IC50 (second compound 0.03 µM) | IC50 (second compound 0.0949 µM) | IC50 (second compound 0.3 µM)
2.54 nM: IC50 (second compound 0.003 µM)
inactive: viability, T/C [1] 71.1% | viability, T/C [2] 64.6% | viability, T/C [3] 60.9% | viability, T/C [4] 39.8% | viability, T/C [5] 30.2% | viability, T/C [6] 25.4% | viability, T/C [7] 58.1% | viability, T/C [8] 48.9% | viability, T/C [9] 38.9% | viability, T/C [10] 30.9% | viability, T/C [11] 24.3% | viability, T/C [12] 15.8% | viability, T/C [13] 44.3% | viability, T/C [14] 36.2% | viability, T/C [15] 32.8% | viability, T/C [16] 22.7% | viability, T/C [17] 16.9% | viability, T/C [18] 14% | viability, T/C [19] 32.8% | viability, T/C [20] 40.1% | viability, T/C [21] 25.6% | viability, T/C [22] 24.7% | viability, T/C [23] 19.5% | viability, T/C [24] 11.6% | viability, T/C [25] 35.1% | viability, T/C [26] 33.8% | viability, T/C [27] 27.9% | viability, T/C [28] 22.3% | viability, T/C [29] 20% | viability, T/C [30] 11.5% | viability, T/C [31] 36% | viability, T/C [32] 32.7% | viability, T/C [33] 28.5% | viability, T/C [34] 18.3% | viability, T/C [35] 15.4% | viability, T/C [36] 10.7%
16.9 nM: IC50 (second compound 0.000949 µM)
